This is an account of results in patent US7501422B2, “Prolinamide-tetrazole derivatives as NK3 receptor antagonists” (Hoffmann-La Roche Inc., priority 2007, dated 2009).

Assay [1] concerns the target T1, recombinant human NK3 receptor (Homo sapiens, UniProt P29371).
T1 construct: expressed in transfected cells; host or cells: HEK293 cells, transient expression; membranes
T1 sequence (P29371 1-465): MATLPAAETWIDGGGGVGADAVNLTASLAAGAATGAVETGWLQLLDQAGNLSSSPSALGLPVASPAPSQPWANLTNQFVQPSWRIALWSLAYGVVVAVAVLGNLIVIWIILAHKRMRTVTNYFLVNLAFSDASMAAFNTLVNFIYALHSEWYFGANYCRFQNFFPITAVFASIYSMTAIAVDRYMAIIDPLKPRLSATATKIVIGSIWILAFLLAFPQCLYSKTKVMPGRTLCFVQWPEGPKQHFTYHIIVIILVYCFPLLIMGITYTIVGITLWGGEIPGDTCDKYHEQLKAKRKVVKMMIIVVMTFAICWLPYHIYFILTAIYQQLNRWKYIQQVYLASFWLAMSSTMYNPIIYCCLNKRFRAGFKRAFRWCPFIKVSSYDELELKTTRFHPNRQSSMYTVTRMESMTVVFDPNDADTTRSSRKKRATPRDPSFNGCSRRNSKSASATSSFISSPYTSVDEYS
Description: [3H]SR142801 competition binding assay. Conditions: membranes from HEK293 cells transiently expressing recombinant human NK3 receptor; [3H]SR142801 radioligand; read-out: Data Ki (hNK-3 receptor affinity). As for the experimental part: [^3H]SR142801 Competition Binding Assay
hNK3 receptor binding experiment were performed using [^3H]SR142801 (Catalog No. TRK1035, specific activity: 74.0 Ci/mmol, Amersham, G E Healthcare UK limited, Buckinghamshire, UK) and membrane isolated from HEK293 cells transiently expressing recombinant human NK3 receptor. After thawing, the membrane homogenates were centrifuged at 48,000×g for 10 min at 4° C., the pellets were resuspended in the 50 mM Tris-HCl, 4 mM MnCl2, 1 μM phosphoramidon, 0.1% BSA binding buffer at pH 7.4 to a final assay concentration of 5 μg protein/well. For inhibition experiments, membranes were incubated with [^3H]SR142801 at a concentration equal to KD value of radioligand and 10 concentrations of the inhibitory compound (0.0003-10 μM) (in a total reaction volume of 500 μl) for 75 min at room temperature (RT). At the end of the incubation, membranes were filtered onto unitfilter (96-well white microplate with bonded GF/C filter preincubated 1 h in 0.3% PEI+0.3% BSA, Packard BioScience, Meriden, Conn.) with a Filtermate 196 harvester (Packard BioScience) and washed 4 times with ice-cold 50 mM Tris-HCl, pH 7.4 buffer. Nonspecific binding was measured in the presence of 10 μM SB222200 for both radioligands. The radioactivity on the filter was counted (5 min) on a Packard Top-count microplate scintillation counter with quenching correction after addition of 45 μl of microscint 40 (Can berra Packard S. A., Zürich, Switzerland) and shaking for 1 h. Inhibition curves were fitted according to the Hill equation: y=100/(1+(x/IC50)^nH), where nH=slope factor using Excel-fit 4 software (Microsoft). IC50 values were derived from the inhibition curve and the affinity constant (Ki) values were calculated using the Cheng-Prussoff equation Ki=IC50/(1+[L]/KD) where [L] is the concentration of radioligand and KD is its dissociation constant at the receptor, derived from the saturation isotherm. All experiments were performed in duplicate and the mean±standard error (SEM) of the individual Ki values was calculated.

In assay [2] the target is T2, NK3 tachykinin receptor (Homo sapiens, UniProt P29371).
T2 sequence (P29371 1-465): T1 sequence (P29371 1-465)
The conditions noted are these: phase II trial, cited from earlier work.

pKi: −log10 of the molar value.

Broadly, the pKi is −log10 of the Ki, conventionally taken in molar units. As for `N#Cc1ccccc1N1CCN(C(=O)[C@@H]2C[C@H](n3nnc(-c4ccc(F)cc4F)n3)CN2Cc2ccccc2)CC1` [Example 1, 2-(4-{(2S,4S)-1-Benzyl-4-[5-(2,4-difluoro-phenyl)-tetrazol-2-yl]-pyrrolidine-2-carbonyl}-piperazin-1-yl)-benzonitrile], the pKi in assay [1] is 7.08. Turning to `N#Cc1ccccc1N1CCN(C(=O)[C@@H]2C[C@H](n3nnc(-c4ccc(F)cc4F)n3)CN2Cc2ccccc2F)CC1` [Example 2, 2-{4-[(2S,4S)-4-[5-(2,4-Difluoro-phenyl)-tetrazol-2-yl]-1-(2-fluoro-benzyl)-pyrrolidine-2-carbonyl]-piperazin-1-yl}-benzonitrile], in assay [1], the pKi is 7.64. On the same count and under the same terms, for `N#Cc1ccccc1N1CCN(C(=O)[C@@H]2C[C@H](n3nnc(-c4ccc(F)cc4F)n3)CN2Cc2cccc(F)c2)CC1` [Example 3, 2-{4-[(2S,4S)-4-[5-(2,4-Difluoro-phenyl)-tetrazol-2-yl]-1-(3-fluoro-benzyl)-pyrrolidine-2-carbonyl]-piperazin-1-yl}-benzonitrile] the value was 6.49; for `N#Cc1ccccc1N1CCN(C(=O)[C@@H]2C[C@H](n3nnc(-c4ccc(F)cc4F)n3)CN2Cc2ccc(F)cc2)CC1` [Example 4, 2-{4-[(2S,4S)-4-[5-(2,4-Difluoro-phenyl)-tetrazol-2-yl]-1-(4-fluoro-benzyl)-pyrrolidine-2-carbonyl]-piperazin-1-yl}-benzonitrile], 6.02; for `N#Cc1ccccc1N1CCN(C(=O)[C@@H]2C[C@H](n3nnc(-c4ccc(F)cc4F)n3)CN2Cc2ccccc2Cl)CC1` [Example 5, 2-(4-{(2S,4S)-1-(2-Chloro-benzyl)-4-[5-(2,4-difluoro-phenyl)-tetrazol-2-yl]-pyrrolidine-2-carbonyl}-piperazin-1-yl)-benzonitrile], 6.55. As for `N#Cc1ccccc1N1CCN(C(=O)[C@@H]2C[C@H](n3nnc(-c4ccc(F)cc4F)n3)CN2Cc2cccc(Cl)c2)CC1` [Example 6, 2-(4-{(2S,4S)-1-(3-Chloro-benzyl)-4-[5-(2,4-difluoro-phenyl)-tetrazol-2-yl]-pyrrolidine-2-carbonyl}-piperazin-1-yl)-benzonitrile], in assay [1], the pKi was 6.53. Still for that read-out and setting: the figure for `N#Cc1ccccc1N1CCN(C(=O)[C@@H]2C[C@H](n3nnc(-c4ccc(F)cc4F)n3)CN2Cc2ccc(Cl)cc2)CC1` [Example 7, 2-(4-{(2S,4S)-1-(4-Chloro-benzyl)-4-[5-(2,4-difluoro-phenyl)-tetrazol-2-yl]-pyrrolidine-2-carbonyl}-piperazin-1-yl)-benzonitrile] is 6.68; for `N#Cc1ccccc1N1CCN(C(=O)[C@@H]2C[C@H](n3nnc(-c4ccc(F)cc4F)n3)CN2CC2CCCCC2)CC1` [Example 8, 2-(4-{(2S,4S)-1-Cyclohexylmethyl-4-[5-(2,4-difluoro-phenyl)-tetrazol-2-yl]-pyrrolidine-2-carbonyl}-piperazin-1-yl)-benzonitrile] it is 6.16; for `N#Cc1ccccc1N1CCN(C(=O)[C@@H]2C[C@H](n3nnc(-c4ccc(F)cc4F)n3)CN2Cc2ccc(F)c(F)c2)CC1` [Example 9, 2-(4-{(2S,4S)-1-(3,4-Difluoro-benzyl)-4-[5-(2,4-difluoro-phenyl)-tetrazol-2-yl]-pyrrolidine-2-carbonyl}-piperazin-1-yl)-benzonitrile] it is 6.41. Regarding `CC(=O)N(C)C1(c2ccccc2)CCN(CCC[C@]2(c3ccc(Cl)c(Cl)c3)CCCN(C(=O)c3ccccc3)C2)CC1` [SR 142,801, Osanetant], in assay [2] (negative symptoms (depression, anhedonia, social isolation, memory and attention deficits)), the “activity in treatment of negative symptoms of schizophrenia” value is “inactive”. The “activity on positive symptoms of schizophrenia” value in assay [2] (positive symptoms (altered behavior, delusion, hallucinations, extreme emotions, excited motor activity, incoherent speech)) was “active”.
